Data reported in US12194050B2, “Thiadiazine derivatives” (RICHTER GEDEON NYRT., priority 2018, dated 2025).

What follows are molecules tested against human α7 nAchR (Homo sapiens (Human), UniProt P36544) (assay: Human α7 nicotinic acetylcholine receptor [Ca2+]i assay (PAM, Ca2+ fluorometry)). Details: Flp-In 293 cells expressing human α7 nAchR and human RIC-3; in presence of saturating agonist (mostly PNU-282987, 1 μM).
Format: cell-based
Description: Biological Activity Human α7 Nicotinic Acetylcholine Receptor [Ca^2+]i Assay
Cells: Flp-In 293 cells stably expressing human α7 nAchR and human RIC-3 (α7 cells, generated in house.)
Materials: 96-well plates coated with PDL (Falcon), culture medium, assay buffer, DMSO, FLIPR Calcium 5 kit (Molecular Devices), probenecid, agonist and PAM test compounds.
Brief Description of the Method (Ca^2+ Fluorometry)
α7 cells stably expressing human α7 nAchR were cultured in the medium detailed above, and were split twice a week. For the fluorometric measurements of cytosolic Ca^2+ ion concentration ([Ca^2+]i) cells were seeded in 96-well microplates at a density of 60000 cells/well and maintained overnight in a tissue culture incubator at 37° C. under an atmosphere of 95% air/5% CO2. The plating medium was identical with the culture medium. 50 μl of the growth medium was aspirated with a cell washer (BioTek Elx405UCVWS). Then 50 μl/well Calcium 5 kit diluted 2-fold in assay buffer was added manually using an 8-channel pipette. After an incubation period (20 minutes, 37° C.) 50 μl/well assay buffer containing vehicle (DMSO, 4% added) or reference α7 PAMs (4×of the final concentration) were added manually and the cells were incubated for an additional 10 minutes at 37° C. Baseline and agonist-evoked [Ca2+]i-changes were monitored with FlexStation II (Molecular Devices, Sunnyvale, Calif.), a plate reader fluorometer with integrated 8-channel fluid addition capability. Fluorescence measurements were carried out at 37° C. The dye was excited at 485 nm, emission was sampled at 525 nm at 1.4-s intervals. Baseline was recorded for 20 seconds followed by agonist stimulation. 50 μl 4× concentrated agonist solution was added to the cells using the pipettor of FlexStation II and fluorescence was monitored for an additional 40 seconds. Final DMSO concentration was 1% for all treatments. To achieve this, a series of DMSO stock solutions were prepared from all test compounds. These stocks were stored under 0° C. and were further diluted in assay buffer to obtain the desired final concentration immediately before the measurement. Agonist and PAM concentration-response studies were conducted in the presence of saturating concentrations of PAMs (mostly PNU-120596, 5 μM) and agonists (mostly PNU-282987, 1 μM), respectively. Results were expressed as ΔF/F values using SoftMax Pro software (Molecular Devices), where F was the resting fluorescence preceding agonist application and ΔF was the increase in fluorescence at a given time (ΔF=maximum fluorescence intensity values after stimulation minus average fluorescence intensity values before stimulation). In all experiments, all treatments were measured in multiple wells in parallel, and the mean ΔF/F values were used for analysis.

Chain of human α7 nAchR (P36544 23-502): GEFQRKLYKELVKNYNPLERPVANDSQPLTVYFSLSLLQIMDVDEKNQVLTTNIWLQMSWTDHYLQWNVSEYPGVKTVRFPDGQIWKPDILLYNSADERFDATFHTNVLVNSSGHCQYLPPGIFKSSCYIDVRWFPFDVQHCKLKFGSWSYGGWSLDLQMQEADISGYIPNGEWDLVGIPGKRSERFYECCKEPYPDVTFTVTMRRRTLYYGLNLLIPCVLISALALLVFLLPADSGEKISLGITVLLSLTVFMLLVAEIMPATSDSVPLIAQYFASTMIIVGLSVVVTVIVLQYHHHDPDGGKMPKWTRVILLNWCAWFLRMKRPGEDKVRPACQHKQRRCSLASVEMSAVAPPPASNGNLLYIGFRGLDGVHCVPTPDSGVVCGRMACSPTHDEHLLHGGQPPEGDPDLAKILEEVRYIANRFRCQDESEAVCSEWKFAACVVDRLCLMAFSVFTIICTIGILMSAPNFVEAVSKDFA

SMILES | EC50 [µM]
COc1ccc(C2=NS(=O)(=O)N(C)C(C(=O)Nc3ccc4c(c3)CCN(C)C4=O)=C2)cc1OC [Example 2] | 1.4
COc1ccc(C2=NS(=O)(=O)N(C)C(C(=O)Nc3ccc(C(C)=O)cc3)=C2)cc1OC [Example 3] | 0.69
COc1ccc(C2=NS(=O)(=O)N(C)C(C(=O)Nc3cccc(C(C)=O)c3)=C2)cc1OC [Example 4] | 0.98
CCc1ccc(NC(=O)C2=CC(c3ccc(OC)c(OC)c3)=NS(=O)(=O)N2C)cc1 [Example 6] | 1.3
COc1ccc(C2=NS(=O)(=O)N(C)C(C(=O)Nc3ccn4nccc4c3)=C2)cc1OC [Example 7] | 2
COc1ccc(C2=NS(=O)(=O)N(C)C(C(=O)Nc3cccc(C#N)c3)=C2)cc1OC [Example 8] | 1.8
COc1ccc(C2=NS(=O)(=O)N(C)C(C(=O)Nc3ccc4c(c3)OCO4)=C2)cc1OC [Example 9] | 1.6
COc1cccc(NC(=O)C2=CC(c3ccc(OC)c(OC)c3)=NS(=O)(=O)N2C)c1 [Example 10] | 0.67
COc1ccc(NC(=O)C2=CC(c3ccc(OC)c(OC)c3)=NS(=O)(=O)N2C)cc1 [Example 11] | 0.44
COc1ccc(C2=NS(=O)(=O)N(C)C(C(=O)Nc3ccc(C)cc3)=C2)cc1OC [Example 14] | 1.4
COc1ccc(C2=NS(=O)(=O)N(C)C(C(=O)Nc3ccnc(C)c3)=C2)cc1OC [Example 15] | 3
COc1ccc(C2=NS(=O)(=O)N(C)C(C(=O)Nc3cccc(C)n3)=C2)cc1OC [Example 16] | 1.4
COc1ccc(C2=NS(=O)(=O)N(C)C(C(=O)Nc3ccc(C)cn3)=C2)cc1OC [Example 17] | 2.8
COc1ccc(C2=NS(=O)(=O)N(C)C(C(=O)Nc3cc(C)ccn3)=C2)cc1OC [Example 18] | 2.9
COc1ccc(C2=NS(=O)(=O)N(C)C(C(=O)Nc3cccc(F)c3)=C2)cc1OC [Example 19] | 1.6
COc1ccc(C2=NS(=O)(=O)N(C)C(C(=O)Nc3cccc(Cl)c3)=C2)cc1OC [Example 20] | 0.94
COc1ccc(C2=NS(=O)(=O)N(C)C(C(=O)Nc3cc(Cl)ccc3OC)=C2)cc1Cl [Example 25] | 1.4
COc1cc(C2=NS(=O)(=O)N(C)C(C(=O)Nc3cccc(C)c3)=C2)ccc1Cl [Example 28] | 1.2

SMILES | EC50 [µM]
CCN1C(C(=O)Nc2ccc(C)c(Cl)c2)=CC(c2ccc(OC)c(OC)c2)=NS1(=O)=O [Example 30] | 0.44
CCN1C(C(=O)Nc2cccc(C(F)(F)F)c2)=CC(c2ccc(OC)c(OC)c2)=NS1(=O)=O [Example 31] | 0.44
CCN1C(C(=O)Nc2ccc(OC(F)(F)F)cc2)=CC(c2ccc(OC)c(OC)c2)=NS1(=O)=O [Example 32] | 0.72
CCN1C(C(=O)Nc2cccc(Cl)c2)=CC(c2ccc(OC)c(C)c2)=NS1(=O)=O [Example 47] | 0.5
CCN1C(C(=O)Nc2cccc(C(F)(F)F)c2)=CC(c2ccc(C)c(OC)c2)=NS1(=O)=O [Example 49] | 0.49
CCN1C(C(=O)Nc2cccc(C(F)(F)F)c2)=CC([C@H]2CC[C@H](C(F)(F)F)CC2)=NS1(=O)=O [Example 50] | 1.1
CCN1C(C(=O)Nc2cccc(C(F)(F)F)c2)=CC(C2CCC(F)(F)CC2)=NS1(=O)=O [Example 51] | 0.81
CCN1C(C(=O)Nc2cccc(C(F)(F)F)c2)=CC([C@H]2CC3C[C@@H]3C2)=NS1(=O)=O (stereo partly drawn) [Example 52] | 1.6
CN1C(C(=O)Nc2cccc(C(F)(F)F)n2)=CC([C@H]2CC[C@H](C(F)(F)F)CC2)=NS1(=O)=O [Example 54] | 0.48
CN1C(C(=O)Nc2cccc(C(F)(F)F)n2)=CC(C2CCC(F)(F)CC2)=NS1(=O)=O [Example 55] | 0.47
CN1C(C(=O)Nc2cccc(F)n2)=CC(C2CCC(F)(F)CC2)=NS1(=O)=O [Example 56] | 2.5
CCN1C(C(=O)Nc2cccc(C(F)(F)F)c2F)=CC([C@H]2CC[C@H](C(F)(F)F)CC2)=NS1(=O)=O [Example 57] | 2
CCN1C(C(=O)Nc2cncc(C(F)(F)F)c2)=CC([C@H]2CC[C@H](C(F)(F)F)CC2)=NS1(=O)=O [Example 58] | 1.2
CCN1C(C(=O)Nc2ccc(C(F)(F)F)cn2)=CC([C@H]2CC[C@H](C(F)(F)F)CC2)=NS1(=O)=O [Example 59] | 1.3
CCN1C(C(=O)Nc2cc(Cl)ccn2)=CC([C@H]2CC[C@H](C(F)(F)F)CC2)=NS1(=O)=O [Example 62] | 2.8
CCN1C(C(=O)Nc2cccc(C(F)(F)F)n2)=CC([C@H]2CC[C@H](OC)CC2)=NS1(=O)=O [Example 65] | 1.1
CCN1C(C(=O)Nc2cccc(C(F)(F)F)n2)=CC(C2CCCCCC2)=NS1(=O)=O [Example 66] | 0.43
CCN1C(C(=O)Nc2cncc(C(F)(F)F)n2)=CC(C2CCC(F)(F)CC2)=NS1(=O)=O [Example 69] | 1.1

The next molecules have a lower EC50 than those just listed; values first:

EC50 [µM] | SMILES
0.4 | COc1ccc(C2=NS(=O)(=O)N(C)C(C(=O)Nc3cccc(C(F)(F)F)c3)=C2)cc1C [Example 23]
0.37 | Cc1cccc(NC(=O)C2=CC(c3ccc4c(cnn4C)c3)=NS(=O)(=O)N2C)c1 [Example 22]
0.36 | COc1ccc(C2=NS(=O)(=O)N(C)C(C(=O)Nc3cccc(C(F)(F)F)c3)=C2)cc1Cl [Example 26]
0.36 | CCN1C(C(=O)Nc2cccc(C(F)(F)F)c2)=CC(c2ccc(OC)c(C)c2)=NS1(=O)=O [Example 44]
0.34 | COc1ccc(C2=NS(=O)(=O)N(C)C(C(=O)Nc3ccc(C)c(Cl)c3)=C2)cc1OC [Example 13]
0.33 | CCN1C(C(=O)Nc2cccc(C(F)(F)F)c2)=CC(c2ccc(C(F)(F)F)c(OC)c2)=NS1(=O)=O [Example 48]
0.33 | CCN1C(C(=O)Nc2ccnc(C(F)(F)F)n2)=CC([C@H]2CC[C@H](C(F)(F)F)CC2)=NS1(=O)=O [Example 64]
0.31 | CCN1C(C(=O)Nc2ccc(OC)c(Cl)c2)=CC(c2ccc(OC)c(OC)c2)=NS1(=O)=O [Example 36]
0.3 | CCN1C(C(=O)Nc2cncc(C(F)(F)F)n2)=CC([C@H]2CC[C@H](C(F)(F)F)CC2)=NS1(=O)=O [Example 60]
0.23 | COc1ccc(C2=NS(=O)(=O)N(C)C(C(=O)Nc3cccc(C(F)(F)F)c3)=C2)cc1OC [Example 12]
0.22 | CCN1C(C(=O)Nc2cccc(C(F)(F)F)n2)=CC([C@H]2CC[C@H](C)CC2)=NS1(=O)=O [Example 67]
0.21 | CCc1cccc(NC(=O)C2=CC(c3ccc(OC)c(OC)c3)=NS(=O)(=O)N2C)c1 [Example 5]
0.21 | COc1ccc(C2=NS(=O)(=O)N(C)C(C(=O)Nc3cccc(C)c3)=C2)cc1C [Example 24]
0.21 | CCN1C(C(=O)Nc2cccc(C)c2)=CC(c2ccc(OC)c(C)c2)=NS1(=O)=O [Example 45]
0.19 | CCN1C(C(=O)Nc2cncc(F)n2)=CC([C@H]2CC[C@H](C(F)(F)F)CC2)=NS1(=O)=O [Example 63]
0.17 | CCN1C(C(=O)Nc2ccc(C)cc2)=CC(c2ccc(OC)c(C)c2)=NS1(=O)=O [Example 46]
0.15 | CCN1C(C(=O)Nc2ccc(Cl)c(OC)c2)=CC(c2ccc(OC)c(OC)c2)=NS1(=O)=O [Example 35]
0.15 | CCN1C(C(=O)Nc2cccc(C(F)(F)F)c2)=CC(c2ccc(OC)c(C(F)(F)F)c2)=NS1(=O)=O [Example 39]
0.14 | CCN1C(C(=O)Nc2cccc(C(F)(F)F)n2)=CC(C2CCC(F)(F)CC2)=NS1(=O)=O [Example 68]
0.13 | CCN1C(C(=O)Nc2ccc(C)c(C)c2)=CC(c2ccc(OC)c(OC)c2)=NS1(=O)=O [Example 34]
0.12 | CCN1C(C(=O)Nc2cccc(OC)c2)=CC(c2ccc(OC)c(C)c2)=NS1(=O)=O [Example 42]
0.11 | COc1ccc(C2=NS(=O)(=O)N(C)C(C(=O)Nc3cccc(C)c3)=C2)cc1Cl [Example 27]
0.11 | CCN1C(C(=O)Nc2ccc(OC)cc2)=CC(c2ccc(OC)c(C)c2)=NS1(=O)=O [Example 43]
0.1 | CCN1C(C(=O)Nc2ccc(C)cc2)=CC(c2ccc(OC)c(C(F)(F)F)c2)=NS1(=O)=O [Example 41]
0.1 | CCN1C(C(=O)Nc2cccc(F)n2)=CC([C@H]2CC[C@H](C(F)(F)F)CC2)=NS1(=O)=O [Example 61]
0.06 | CCN1C(C(=O)Nc2cccc(C)c2)=CC(c2ccc(OC)c(C(F)(F)F)c2)=NS1(=O)=O [Example 40]
0.045 | CCN1C(C(=O)Nc2ccc(OC)cc2)=CC(c2ccc(OC)c(C(F)(F)F)c2)=NS1(=O)=O [Example 38]
